From the NIST ThermoML archive (doi:10.1021/je800110r)
Numbers after ± are expanded uncertainties.

Settings: 333.15 K, Liquid, Vibrating tube method

CCCCCCCCCC [decane]
Settings	mass density [kg/m3]
19251 kPa	716.4 ± 2
19274 kPa	716.4 ± 2
19314 kPa	716.5 ± 2
19349 kPa	716.6 ± 2
19381 kPa	716.6 ± 2
19417 kPa	716.4 ± 2
19450 kPa	716.6 ± 2
19479 kPa	716.6 ± 2
19511 kPa	716.6 ± 2
19540 kPa	716.7 ± 2
19568 kPa	716.7 ± 2
19592 kPa	716.6 ± 2
19616 kPa	716.7 ± 2
19651 kPa	716.8 ± 2
19679 kPa	716.8 ± 2
19711 kPa	716.7 ± 2
19731 kPa	716.7 ± 2
19756 kPa	716.9 ± 2
19796 kPa	716.8 ± 2
19819 kPa	716.8 ± 2
19856 kPa	716.9 ± 2
19885 kPa	717 ± 2
19910 kPa	716.9 ± 2
19934 kPa	717 ± 2
19963 kPa	717 ± 2
19996 kPa	716.9 ± 2
20029 kPa	717.1 ± 2
20054 kPa	717.2 ± 2
20083 kPa	717 ± 2
20116 kPa	717 ± 2
20150 kPa	717.1 ± 2
20188 kPa	717.1 ± 2
20228 kPa	717.3 ± 2
20254 kPa	717.2 ± 2
20284 kPa	717.3 ± 2
20318 kPa	717.2 ± 2
20356 kPa	717.3 ± 2
20390 kPa	717.3 ± 2
20425 kPa	717.4 ± 2
20464 kPa	717.3 ± 2
20494 kPa	717.3 ± 2
20525 kPa	717.4 ± 2
20552 kPa	717.5 ± 2
20579 kPa	717.5 ± 2
20606 kPa	717.4 ± 2
20628 kPa	717.4 ± 2
20654 kPa	717.5 ± 2
20695 kPa	717.6 ± 2
20730 kPa	717.5 ± 2
20769 kPa	717.6 ± 2
20801 kPa	717.6 ± 2
20841 kPa	717.6 ± 2
20873 kPa	717.7 ± 2
20900 kPa	717.7 ± 2
20931 kPa	717.7 ± 2
20959 kPa	717.8 ± 2
20996 kPa	717.7 ± 2
21022 kPa	717.8 ± 2
21055 kPa	717.8 ± 2
21176 kPa	717.9 ± 2
21204 kPa	717.9 ± 2
21251 kPa	717.9 ± 2
21280 kPa	718 ± 2
21313 kPa	718.1 ± 2
21352 kPa	718.1 ± 2
21376 kPa	718.1 ± 2
21409 kPa	718.2 ± 2
21433 kPa	718.1 ± 2
21462 kPa	718.2 ± 2
21500 kPa	718.2 ± 2
21529 kPa	718.2 ± 2
21573 kPa	718.3 ± 2
21612 kPa	718.4 ± 2
21655 kPa	718.3 ± 2
21690 kPa	718.4 ± 2
21725 kPa	718.4 ± 2
21755 kPa	718.4 ± 2
21861 kPa	718.6 ± 2
21901 kPa	718.5 ± 2
21931 kPa	718.6 ± 2
21967 kPa	718.6 ± 2
22007 kPa	718.5 ± 2
22038 kPa	718.6 ± 2
22074 kPa	718.7 ± 2
22115 kPa	718.7 ± 2
22162 kPa	718.7 ± 2
22193 kPa	718.8 ± 2
22224 kPa	718.8 ± 2
22261 kPa	718.8 ± 2
22293 kPa	718.8 ± 2
22345 kPa	718.9 ± 2
22381 kPa	718.9 ± 2
22419 kPa	719 ± 2
22471 kPa	719 ± 2
22498 kPa	718.9 ± 2
22530 kPa	719 ± 2
22561 kPa	719 ± 2
22611 kPa	719 ± 2.1
22649 kPa	719.1 ± 2.1
22677 kPa	719.1 ± 2.1
22726 kPa	719.1 ± 2.1
22771 kPa	719.2 ± 2.1
22816 kPa	719.2 ± 2.1
22849 kPa	719.4 ± 2.1
22899 kPa	719.3 ± 2.1
22927 kPa	719.4 ± 2.1
22959 kPa	719.3 ± 2.1
23000 kPa	719.3 ± 2.1
23038 kPa	719.5 ± 2.1
23068 kPa	719.3 ± 2.1
23096 kPa	719.5 ± 2.1
23134 kPa	719.6 ± 2.1
23172 kPa	719.5 ± 2.1
23219 kPa	719.5 ± 2.1
23252 kPa	719.6 ± 2.1
23281 kPa	719.5 ± 2.1
23314 kPa	719.6 ± 2.1
23339 kPa	719.7 ± 2.1
23382 kPa	719.7 ± 2.1
23416 kPa	719.8 ± 2.1
23452 kPa	719.7 ± 2.1
23491 kPa	719.8 ± 2.1
23539 kPa	719.9 ± 2.1
23579 kPa	719.7 ± 2.1
23623 kPa	719.9 ± 2.1
23657 kPa	719.9 ± 2.1
23697 kPa	719.9 ± 2.1
23726 kPa	719.9 ± 2.1
23766 kPa	720 ± 2.1
23797 kPa	720 ± 2.1
23831 kPa	719.9 ± 2.1
23868 kPa	720.1 ± 2.1
23898 kPa	720.1 ± 2.1
23943 kPa	720.1 ± 2.1
23979 kPa	720 ± 2.1
24014 kPa	720.1 ± 2.1
24049 kPa	720.1 ± 2.1
24085 kPa	720.1 ± 2.1
24131 kPa	720.3 ± 2.1
24177 kPa	720.3 ± 2.1
24224 kPa	720.2 ± 2.1
24260 kPa	720.2 ± 2.1
24308 kPa	720.3 ± 2.1
24355 kPa	720.4 ± 2.1
24402 kPa	720.5 ± 2.1
24433 kPa	720.5 ± 2.1
24481 kPa	720.5 ± 2.1
24513 kPa	720.5 ± 2.1
24550 kPa	720.5 ± 2.1
24586 kPa	720.6 ± 2.1
24618 kPa	720.6 ± 2.1
24656 kPa	720.6 ± 2.1
24700 kPa	720.6 ± 2.1
24738 kPa	720.7 ± 2.1
24783 kPa	720.8 ± 2.1
24815 kPa	720.9 ± 2.1
24859 kPa	720.8 ± 2.1
24897 kPa	720.9 ± 2.1
24935 kPa	720.9 ± 2.1
24974 kPa	720.7 ± 2.1
25013 kPa	721 ± 2.1
25058 kPa	720.9 ± 2.1
25114 kPa	721.1 ± 2.1
25142 kPa	721 ± 2.1
25177 kPa	721 ± 2.1
25213 kPa	721.1 ± 2.1
25259 kPa	721.1 ± 2.1
25303 kPa	721.2 ± 2.1
26374 kPa	721.9 ± 2.1
26417 kPa	722 ± 2.1
26462 kPa	722.1 ± 2.1
26501 kPa	722 ± 2.1
27273 kPa	722.7 ± 2.1
27328 kPa	722.6 ± 2.1
27371 kPa	722.6 ± 2.1
27419 kPa	722.6 ± 2.1
29838 kPa	724.5 ± 2.1
29868 kPa	724.5 ± 2.1
29913 kPa	724.5 ± 2.1
29948 kPa	724.6 ± 2.1
29988 kPa	724.7 ± 2.1
30720 kPa	725.2 ± 2.1
30760 kPa	725.2 ± 2.1
30787 kPa	725.3 ± 2.1
30831 kPa	725.2 ± 2.1
30857 kPa	725.2 ± 2.1
30898 kPa	725.3 ± 2.1
30924 kPa	725.4 ± 2.1
30960 kPa	725.2 ± 2.1
31000 kPa	725.3 ± 2.1
31027 kPa	725.4 ± 2.1
31059 kPa	725.4 ± 2.1
31090 kPa	725.4 ± 2.1
31122 kPa	725.4 ± 2.1
31148 kPa	725.4 ± 2.1
31190 kPa	725.5 ± 2.1
31218 kPa	725.5 ± 2.1
31259 kPa	725.6 ± 2.1
31295 kPa	725.5 ± 2.1
31332 kPa	725.6 ± 2.1
31592 kPa	725.8 ± 2.1
31630 kPa	725.8 ± 2.1
31667 kPa	725.7 ± 2.1
31731 kPa	725.9 ± 2.1
31793 kPa	725.9 ± 2.1
31821 kPa	725.9 ± 2.1
31859 kPa	726 ± 2.1
31893 kPa	725.9 ± 2.1
31921 kPa	726.1 ± 2.1
31956 kPa	726 ± 2.1
31994 kPa	726 ± 2.1
32038 kPa	726.1 ± 2.1
32086 kPa	726.1 ± 2.1
32125 kPa	726 ± 2.1
32150 kPa	726.2 ± 2.1
32479 kPa	726.4 ± 2.1
32505 kPa	726.4 ± 2.1
32549 kPa	726.4 ± 2.1
32589 kPa	726.4 ± 2.1
32625 kPa	726.4 ± 2.1
32670 kPa	726.7 ± 2.1
32696 kPa	726.6 ± 2.1
32737 kPa	726.6 ± 2.1
32780 kPa	726.6 ± 2.1
32812 kPa	726.5 ± 2.1
32850 kPa	726.6 ± 2.1
32883 kPa	726.6 ± 2.1
32910 kPa	726.7 ± 2.1
32948 kPa	726.7 ± 2.1
32985 kPa	726.7 ± 2.1
33027 kPa	726.8 ± 2.1
33070 kPa	726.8 ± 2.1
33098 kPa	726.9 ± 2.1
33136 kPa	726.8 ± 2.1
33179 kPa	726.8 ± 2.1
33213 kPa	727 ± 2.1
33251 kPa	726.8 ± 2.1
33289 kPa	726.9 ± 2.1
33328 kPa	726.9 ± 2.1
33366 kPa	727 ± 2.1
33404 kPa	727.1 ± 2.1
33434 kPa	727 ± 2.1
33473 kPa	727 ± 2.1
33508 kPa	727 ± 2.1
33553 kPa	727.1 ± 2.1
33593 kPa	727.3 ± 2.1
33633 kPa	727.1 ± 2.1
33660 kPa	727.2 ± 2.1
33693 kPa	727.3 ± 2.1
33721 kPa	727.3 ± 2.1
33748 kPa	727.3 ± 2.1
33772 kPa	727.2 ± 2.1
33796 kPa	727.3 ± 2.1
33816 kPa	727.4 ± 2.1
33851 kPa	727.3 ± 2.1
33876 kPa	727.5 ± 2.1
33907 kPa	727.3 ± 2.1
33943 kPa	727.5 ± 2.1
33976 kPa	727.5 ± 2.1
34008 kPa	727.4 ± 2.1
34037 kPa	727.5 ± 2.1
34062 kPa	727.6 ± 2.1
34091 kPa	727.5 ± 2.1
34116 kPa	727.6 ± 2.1
34150 kPa	727.6 ± 2.1
34176 kPa	727.6 ± 2.1
34219 kPa	727.7 ± 2.1
34246 kPa	727.7 ± 2.1
34288 kPa	727.7 ± 2.1
34326 kPa	727.7 ± 2.1
34351 kPa	727.7 ± 2.1
34386 kPa	727.8 ± 2.1
34412 kPa	727.8 ± 2.1
34437 kPa	727.7 ± 2.1
